From the CheMixHub viscosity set

Experiment: xn = mol fraction of the nth substance listed

CCCCCCCCCO + CCOC(=O)OCC
101 kPa
Settings	viscosity [mPa·s]
293.15 K, x1 = 0.008	0.816
293.15 K, x2 = 0.03967	9.964
293.15 K, x2 = 0.1094	7.69
293.15 K, x2 = 0.1857	5.899
293.15 K, x2 = 0.2865	4.28
293.15 K, x2 = 0.4032	3.037
293.15 K, x2 = 0.504	2.306
293.15 K, x2 = 0.5999	1.794
293.15 K, x2 = 0.6927	1.434
293.15 K, x2 = 0.8085	1.112
293.15 K, x2 = 0.8962	0.941
303.15 K, x1 = 0.00855	0.711
303.15 K, x2 = 0.03166	7.163
303.15 K, x2 = 0.1064	5.544
303.15 K, x2 = 0.1908	4.257
303.15 K, x2 = 0.2925	3.17
303.15 K, x2 = 0.4014	2.365
303.15 K, x2 = 0.5113	1.798
303.15 K, x2 = 0.62	1.39
303.15 K, x2 = 0.6981	1.173
303.15 K, x2 = 0.8041	0.949
303.15 K, x2 = 0.893	0.815
313.15 K, x1 = 0.00592	0.625
313.15 K, x2 = 0.06302	4.663
313.15 K, x2 = 0.1089	4.053
313.15 K, x2 = 0.1969	3.156
313.15 K, x2 = 0.301	2.399
313.15 K, x2 = 0.4008	1.879
313.15 K, x2 = 0.5098	1.458
313.15 K, x2 = 0.6011	1.199
313.15 K, x2 = 0.689	1.006
313.15 K, x2 = 0.8072	0.812
313.15 K, x2 = 0.8932	0.711

O=[N+]([O-])c1ccccc1O + CN1CCC[C@H]1c1cccnc1
viscosity [mPa·s], 101.33 kPa
Settings	308.15 K	323.15 K
x2 = 0.102	–	2.724
x2 = 0.1563	5.072	3.073
x2 = 0.2019	5.996	3.527
x2 = 0.302	7.601	4.122
x2 = 0.3189	7.832	4.24
x2 = 0.3345	8.011	4.344
x2 = 0.3506	8.004	4.389
x2 = 0.3662	7.982	4.388
x2 = 0.4077	7.889	4.362
x2 = 0.5005	7.375	4.12
x2 = 0.603	6.569	3.83
x2 = 0.6988	5.676	3.421
x2 = 0.7988	4.612	2.927
x2 = 0.8937	3.86	2.523

CC(=O)N(C)C + CN(C)C=O
viscosity [mPa·s], 101 kPa
Settings	298.15 K	308.15 K	318.15 K
x1 = 0.05	0.809	0.718	0.642
x1 = 0.1062	0.816	0.724	0.647
x1 = 0.15	0.822	0.729	0.652
x1 = 0.2171	0.831	0.737	0.658
x1 = 0.26	0.837	0.742	0.662
x1 = 0.3094	0.843	0.747	0.666
x1 = 0.35	0.849	0.752	0.67
x1 = 0.405	0.856	0.758	0.675
x1 = 0.455	0.863	0.763	0.679
x1 = 0.5042	0.87	0.769	0.684
x1 = 0.55	0.876	0.774	0.688
x1 = 0.6071	0.883	0.781	0.694
x1 = 0.655	0.89	0.786	0.698
x1 = 0.714	0.898	0.793	0.704
x1 = 0.75	0.903	0.797	0.707
x1 = 0.7968	0.909	0.803	0.712
x1 = 0.85	0.916	0.809	0.717
x1 = 0.9112	0.925	0.816	0.723
x1 = 0.95	0.93	0.82	0.727
